Measured values published in patent US20230053524A1, “FUNGICIDES TO PREVENT AND CONTROL FUNGAL PATHOGENS” (priority 2020, published 2023).

Key:
Format in all cases: cell-based
Settings in all cases: 168 h, read-out: ED50
[1] = tested on: Fusarium graminearum; assay: microbe, parasite or virus in culture
[2] = tested on: Plectosphaerella cucumerina; assay: In vitro bioassay, mycelia growth on PDA (Example 1)
[3] = tested on: Alternaria radicina; assay: as above

Row | Structure (SMILES) | EC50 [1] | EC50 [2] | EC50 [3]
1 | CS(=O)(=O)CCCCCCCCN=C=S [0/100, 1-Isothiocyanato-8-(methylsulfonyl)-octane] | 536 µM | 480 µM | 763 µM
2 | C[S+]([O-])CCCCCCCCN=C=S (stereo not drawn) [100/0, 1-Isothiocyanato-8-(methylsulfinyl)-octane] | 331 µM | 312 µM | 228 µM
